Data from BindingDB's records for doi:10.1021/jm3015052.

Target: T1, Tyrosine-protein phosphatase non-receptor type 1 (Homo sapiens, UniProt P18031)
T1 sequence (P18031 whole entry): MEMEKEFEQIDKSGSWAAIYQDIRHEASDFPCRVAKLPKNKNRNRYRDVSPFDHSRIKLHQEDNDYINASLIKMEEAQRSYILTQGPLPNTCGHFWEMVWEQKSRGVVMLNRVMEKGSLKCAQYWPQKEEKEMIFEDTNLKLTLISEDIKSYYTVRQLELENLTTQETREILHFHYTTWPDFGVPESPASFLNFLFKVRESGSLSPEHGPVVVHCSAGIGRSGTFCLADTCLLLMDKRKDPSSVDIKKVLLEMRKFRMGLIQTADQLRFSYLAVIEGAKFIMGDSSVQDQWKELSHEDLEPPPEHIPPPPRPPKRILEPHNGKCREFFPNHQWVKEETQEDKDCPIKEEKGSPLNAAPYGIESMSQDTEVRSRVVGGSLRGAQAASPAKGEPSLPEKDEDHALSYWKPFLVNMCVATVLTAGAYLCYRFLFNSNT
Test: Inhibition of PTP1B (unknown origin)

| IC50 | Structure (SMILES) |
| --- | --- |
| 11300 nM | CC(C)=CCc1c(O)ccc2c1O/C(=C\c1ccc(O)cc1)C2=O |

Target: Acetylcholinesterase (Homo sapiens, UniProt P22303)
Sequence (P22303 whole entry): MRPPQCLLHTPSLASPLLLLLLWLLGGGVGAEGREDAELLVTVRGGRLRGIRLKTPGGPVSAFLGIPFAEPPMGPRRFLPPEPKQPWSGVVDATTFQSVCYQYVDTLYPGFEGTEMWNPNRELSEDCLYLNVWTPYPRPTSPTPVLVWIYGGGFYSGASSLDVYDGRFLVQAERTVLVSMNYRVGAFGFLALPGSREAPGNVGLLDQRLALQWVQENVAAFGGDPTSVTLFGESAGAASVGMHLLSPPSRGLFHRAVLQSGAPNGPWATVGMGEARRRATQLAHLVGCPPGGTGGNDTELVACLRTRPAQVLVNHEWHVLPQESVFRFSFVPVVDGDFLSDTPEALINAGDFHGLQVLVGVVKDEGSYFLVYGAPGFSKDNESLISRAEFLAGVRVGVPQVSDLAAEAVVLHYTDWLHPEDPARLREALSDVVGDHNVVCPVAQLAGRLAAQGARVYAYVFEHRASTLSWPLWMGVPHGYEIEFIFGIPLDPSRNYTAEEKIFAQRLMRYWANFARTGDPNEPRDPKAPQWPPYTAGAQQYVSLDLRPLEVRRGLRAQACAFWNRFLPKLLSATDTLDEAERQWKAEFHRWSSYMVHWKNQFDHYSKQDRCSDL
Test: Inhibition of AChE (unknown origin)

| Structure (SMILES) | IC50 |
| --- | --- |
| COc1cc(/C=C2\Oc3cc(OCCN4CCCCC4)ccc3C2=O)cc(OC)c1OC | 422 nM |
| COc1cc(/C=C2\Oc3cc(OCCN4CCCC4)ccc3C2=O)cc(OC)c1OC | 643 nM |
| COc1ccc(/C=C2\Oc3cc(OCCN4CCCCC4)ccc3C2=O)cc1 | 845 nM |
| COc1ccc2c(c1)O/C(=C\c1ccc(OCCN3CCCCC3)c(Cl)c1)C2=O | 160 nM |
| O=C1/C(=C/c2ccc(OCCN3CCCCC3)cc2)Oc2ccccc21 | 348 nM |
| O=C1/C(=C/c2ccc(OCCN3CCCC3)cc2)Oc2ccccc21 | 545 nM |
| CCOc1ccc2c(c1)O/C(=C\c1ccc(OCCN3CCCCC3)cc1)C2=O | 45 nM |

Target: T2, Diacylglycerol O-acyltransferase 1 (Homo sapiens, UniProt O75907)
T2 sequence (O75907 whole entry): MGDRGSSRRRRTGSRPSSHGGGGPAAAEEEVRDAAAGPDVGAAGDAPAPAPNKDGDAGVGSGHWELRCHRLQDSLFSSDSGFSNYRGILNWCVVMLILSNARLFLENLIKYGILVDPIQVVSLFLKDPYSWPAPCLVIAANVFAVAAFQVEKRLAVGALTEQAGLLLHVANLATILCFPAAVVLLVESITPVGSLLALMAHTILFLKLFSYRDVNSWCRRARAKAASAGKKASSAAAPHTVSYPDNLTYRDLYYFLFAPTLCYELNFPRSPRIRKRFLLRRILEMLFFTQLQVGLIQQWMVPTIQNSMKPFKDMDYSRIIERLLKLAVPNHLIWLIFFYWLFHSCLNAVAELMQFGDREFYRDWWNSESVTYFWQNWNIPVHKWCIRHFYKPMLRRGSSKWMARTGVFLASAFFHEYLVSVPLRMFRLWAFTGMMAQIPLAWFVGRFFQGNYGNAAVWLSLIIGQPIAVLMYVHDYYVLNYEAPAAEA
Test: Inhibition of DGAT1 (unknown origin)

| IC50 | Structure (SMILES) |
| --- | --- |
| 35200 nM | CC(C)=CCc1c(O)ccc2c1O/C(=C\c1ccc(O)cc1)C2=O |
